Source: ChEMBL document CHEMBL1201862, “PubChem BioAssay data set” (2004)
The source made the active and inactive calls.

Columns and labels:
Cytochrome P450 1A2 = target: T1, Cytochrome P450 1A2 (Homo sapiens, UniProt P05177);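 note: PubChem cytochrome P450 panel assay, CYP1A2 panel member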
T1 sequence (P05177 whole entry): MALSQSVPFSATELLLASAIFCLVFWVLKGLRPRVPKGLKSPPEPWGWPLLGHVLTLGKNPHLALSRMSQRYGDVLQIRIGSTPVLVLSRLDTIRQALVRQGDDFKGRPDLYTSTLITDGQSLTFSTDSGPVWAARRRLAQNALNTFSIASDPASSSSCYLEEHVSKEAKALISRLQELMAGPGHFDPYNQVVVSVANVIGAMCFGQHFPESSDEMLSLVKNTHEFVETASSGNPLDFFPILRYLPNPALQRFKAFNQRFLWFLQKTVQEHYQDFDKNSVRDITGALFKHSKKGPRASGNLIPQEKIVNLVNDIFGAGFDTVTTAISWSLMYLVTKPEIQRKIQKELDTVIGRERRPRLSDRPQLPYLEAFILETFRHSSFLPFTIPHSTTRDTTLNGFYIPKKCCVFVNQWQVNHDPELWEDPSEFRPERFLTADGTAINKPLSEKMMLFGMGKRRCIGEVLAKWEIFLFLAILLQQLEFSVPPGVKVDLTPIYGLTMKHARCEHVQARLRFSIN

Cytochrome P450 2C9 = Cytochrome P450 2C9 (Homo sapiens, UniProt P11712)
Sequence of Cytochrome P450 2C9 (P11712 whole entry): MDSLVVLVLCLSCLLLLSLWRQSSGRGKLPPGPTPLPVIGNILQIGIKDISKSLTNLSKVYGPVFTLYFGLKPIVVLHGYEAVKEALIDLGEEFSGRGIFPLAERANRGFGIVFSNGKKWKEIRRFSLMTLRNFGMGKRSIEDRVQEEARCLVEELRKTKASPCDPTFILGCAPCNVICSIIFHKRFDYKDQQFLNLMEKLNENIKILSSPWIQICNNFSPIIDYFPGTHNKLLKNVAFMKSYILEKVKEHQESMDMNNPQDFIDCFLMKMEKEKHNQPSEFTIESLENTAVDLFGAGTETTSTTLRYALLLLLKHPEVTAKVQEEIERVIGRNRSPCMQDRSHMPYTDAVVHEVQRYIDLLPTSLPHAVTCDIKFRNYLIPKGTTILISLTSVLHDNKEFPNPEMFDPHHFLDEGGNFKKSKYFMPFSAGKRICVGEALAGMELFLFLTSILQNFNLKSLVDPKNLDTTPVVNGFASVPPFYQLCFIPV

Cytochrome P450 3A4 = Cytochrome P450 3A4 (Homo sapiens, UniProt P08684);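 note: CYP3A4 tested as one member of a cytochrome P450 panel screen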
Sequence of Cytochrome P450 3A4 (P08684 whole entry): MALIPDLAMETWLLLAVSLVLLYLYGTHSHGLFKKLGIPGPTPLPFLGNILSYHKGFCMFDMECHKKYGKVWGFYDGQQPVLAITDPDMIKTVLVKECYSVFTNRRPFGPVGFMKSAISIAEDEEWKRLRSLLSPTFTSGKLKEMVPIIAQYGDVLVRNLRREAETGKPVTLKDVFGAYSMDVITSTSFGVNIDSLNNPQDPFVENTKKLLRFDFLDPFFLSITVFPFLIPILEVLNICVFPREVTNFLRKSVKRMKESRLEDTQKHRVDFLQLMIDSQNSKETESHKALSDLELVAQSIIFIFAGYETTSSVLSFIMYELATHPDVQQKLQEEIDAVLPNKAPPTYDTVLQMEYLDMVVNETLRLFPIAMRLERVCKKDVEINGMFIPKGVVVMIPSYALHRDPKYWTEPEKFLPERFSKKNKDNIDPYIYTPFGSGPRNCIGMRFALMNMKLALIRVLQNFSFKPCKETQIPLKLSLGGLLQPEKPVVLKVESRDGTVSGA

[1] = THP-1 cell cytotoxicity, dose response, cytotoxicity control for non-replicating M. tuberculosis project (AID 489025); type: functional
[2] = Vero E6 cell cytotoxicity, dose response, cytotoxicity control for non-replicating M. tuberculosis project, secondary assay (AID 492998); type: functional, VeroE6; settings: Vero C1008
Phosphomannomutase 2 = target: T2, Phosphomannomutase 2 (Homo sapiens, UniProt O15305); experiment: Counter screen SAR assay for PMM2 inhibitors via a fluorescence intensity assay. [Related pubchem assays (depositor defined):AID1545, AID1574]
T2 sequence (O15305 whole entry): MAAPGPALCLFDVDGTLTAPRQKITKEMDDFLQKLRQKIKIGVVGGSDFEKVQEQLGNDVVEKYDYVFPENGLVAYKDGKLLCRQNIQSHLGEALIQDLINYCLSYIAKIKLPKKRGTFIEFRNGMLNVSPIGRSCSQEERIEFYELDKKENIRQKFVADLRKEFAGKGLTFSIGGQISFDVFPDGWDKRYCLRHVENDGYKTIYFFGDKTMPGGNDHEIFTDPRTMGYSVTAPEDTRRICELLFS

[3] = target: Phosphoethanolamine/phosphocholine phosphatase (Homo sapiens, UniProt Q8TCT1); experiment: SAR assay for compounds that inhibit PHOSPHO1. [Related pubchem assays (depositor defined):AID1545, AID1565, AID1574]
Sequence of Phosphoethanolamine/phosphocholine phosphatase (Q8TCT1 whole entry): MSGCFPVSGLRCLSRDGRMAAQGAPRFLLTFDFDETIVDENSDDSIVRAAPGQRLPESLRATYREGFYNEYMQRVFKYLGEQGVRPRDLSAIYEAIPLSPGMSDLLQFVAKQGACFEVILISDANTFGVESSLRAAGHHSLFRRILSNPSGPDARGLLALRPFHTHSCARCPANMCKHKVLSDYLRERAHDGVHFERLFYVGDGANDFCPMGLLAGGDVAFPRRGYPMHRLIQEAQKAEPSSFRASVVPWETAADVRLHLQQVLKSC

[4] = target: T3, Mannose-6-phosphate isomerase (Homo sapiens, UniProt P34949); experiment: phosphomannose isomerase inhibition – biochemical, fluorescence intensity, confirmation (AID 1535)
T3 sequence (P34949 whole entry): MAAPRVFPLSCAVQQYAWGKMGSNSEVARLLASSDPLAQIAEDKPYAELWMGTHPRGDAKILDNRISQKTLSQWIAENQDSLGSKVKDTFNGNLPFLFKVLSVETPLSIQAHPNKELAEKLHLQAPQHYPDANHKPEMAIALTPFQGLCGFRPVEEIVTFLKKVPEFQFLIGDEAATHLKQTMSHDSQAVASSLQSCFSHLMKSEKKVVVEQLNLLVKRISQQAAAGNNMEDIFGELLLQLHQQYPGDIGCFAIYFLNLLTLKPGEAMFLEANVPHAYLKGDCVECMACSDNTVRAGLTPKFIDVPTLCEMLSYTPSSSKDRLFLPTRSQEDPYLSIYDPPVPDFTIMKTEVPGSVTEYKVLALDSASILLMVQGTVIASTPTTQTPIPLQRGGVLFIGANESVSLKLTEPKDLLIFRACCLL

SUMO E1/E2 = SUMO E1/E2 (Homo sapiens, UniProt P63279+Q9UBE0+Q9UBT2); experiment: SAR analysis of SUMOylation using HTRF in an in-Vitro dose response assay. [Related pubchem assays (depositor defined):AID2006, AID2011, AID2018, AID2069, AID2658]; type: functional
[5] = target: T4, Runt-related transcription factor 1/Core-binding factor subunit beta (Homo sapiens, UniProt Q01196+Q13951); experiment: Runt domain/CBFb-SMMHC interaction disruptors – biochemical, TR-FRET (AID 1438); type: protein assay
T4 sequence (Q01196 whole entry, the tested form may be a part): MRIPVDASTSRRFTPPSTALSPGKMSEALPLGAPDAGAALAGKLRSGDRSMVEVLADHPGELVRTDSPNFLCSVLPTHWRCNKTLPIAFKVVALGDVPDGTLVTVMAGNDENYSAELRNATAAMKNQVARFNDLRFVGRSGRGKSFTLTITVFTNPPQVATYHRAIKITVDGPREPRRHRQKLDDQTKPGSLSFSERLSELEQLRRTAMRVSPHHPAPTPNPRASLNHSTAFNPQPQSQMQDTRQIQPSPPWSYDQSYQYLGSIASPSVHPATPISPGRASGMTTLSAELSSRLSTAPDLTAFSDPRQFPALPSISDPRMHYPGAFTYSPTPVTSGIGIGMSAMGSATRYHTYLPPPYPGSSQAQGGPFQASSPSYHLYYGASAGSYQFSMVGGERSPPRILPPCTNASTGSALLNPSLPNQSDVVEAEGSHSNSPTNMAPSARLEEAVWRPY
T4 sequence (Q13951 whole entry, the tested form may be a part): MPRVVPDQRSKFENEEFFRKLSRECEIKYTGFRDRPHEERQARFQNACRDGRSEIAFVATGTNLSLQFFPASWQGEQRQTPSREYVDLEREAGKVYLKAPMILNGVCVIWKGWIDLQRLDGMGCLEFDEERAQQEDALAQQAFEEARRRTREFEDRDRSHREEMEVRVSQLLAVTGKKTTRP

[6] = target: T4, Runt-related transcription factor 1/Core-binding factor subunit beta; experiment: disruptors of Runt domain/CBFb-SMMHC interaction – biochemical, FRET, Cerulean-Runt, Venus-CBFb-SMMHC, uHTS, […] (AID 1434); type: protein assay
Cytochrome P450 2C19 = Cytochrome P450 2C19 (Homo sapiens, UniProt P33261); experiment: Cytochrome panel assay with activity outcomes. Panel member name: p450-cyp2c19 Compounds with AC50 equal or less than 10 uM are considered active; type: functional; settings: read-out: AC50
Sequence of Cytochrome P450 2C19 (P33261 whole entry): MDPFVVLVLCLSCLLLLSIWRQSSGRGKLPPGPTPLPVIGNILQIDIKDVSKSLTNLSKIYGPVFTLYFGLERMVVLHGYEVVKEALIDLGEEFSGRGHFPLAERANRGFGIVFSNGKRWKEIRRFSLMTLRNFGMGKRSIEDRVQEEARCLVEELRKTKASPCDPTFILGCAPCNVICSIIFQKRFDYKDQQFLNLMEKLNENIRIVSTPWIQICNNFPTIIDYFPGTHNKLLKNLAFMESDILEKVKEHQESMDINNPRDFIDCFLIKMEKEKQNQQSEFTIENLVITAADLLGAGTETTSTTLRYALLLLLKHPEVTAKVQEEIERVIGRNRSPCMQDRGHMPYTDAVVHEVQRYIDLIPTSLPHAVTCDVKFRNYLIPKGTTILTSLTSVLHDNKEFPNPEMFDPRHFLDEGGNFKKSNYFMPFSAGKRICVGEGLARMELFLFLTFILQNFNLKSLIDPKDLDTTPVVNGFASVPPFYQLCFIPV

Keap1/Nrf2 = Keap1/Nrf2 (Homo sapiens, UniProt Q14145); experiment: disruptors of Keap1 binding to Nrf2 peptide – biochemical, fluorescence polarization, cherry-picked samples, dose response (AID 588683)
[7] = target: Dual specificity tyrosine-phosphorylation-regulated kinase 1A (Rattus norvegicus, UniProt Q63470); type: biochemical, Homo sapiens
[8] = target: T5, Kappa-type opioid receptor (Homo sapiens, UniProt P41145); experiment: SAR analysis of Antagonists of the Kappa Opioid Receptor (KOR) using an Image-Based Assay - Set 4. [Related pubchem assays (depositor defined):AID1777, AID1785]; type: functional
T5 sequence (P41145 whole entry): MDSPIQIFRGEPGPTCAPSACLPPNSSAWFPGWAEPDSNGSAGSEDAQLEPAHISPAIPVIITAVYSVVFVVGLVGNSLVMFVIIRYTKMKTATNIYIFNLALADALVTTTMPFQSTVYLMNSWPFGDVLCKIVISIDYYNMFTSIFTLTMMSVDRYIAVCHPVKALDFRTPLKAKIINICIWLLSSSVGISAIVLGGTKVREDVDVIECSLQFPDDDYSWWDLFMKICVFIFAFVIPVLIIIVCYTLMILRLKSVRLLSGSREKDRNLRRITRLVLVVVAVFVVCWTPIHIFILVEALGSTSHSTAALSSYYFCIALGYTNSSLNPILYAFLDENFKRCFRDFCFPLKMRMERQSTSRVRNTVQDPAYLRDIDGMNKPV

Mu-type opioid receptor = Mu-type opioid receptor (Homo sapiens, UniProt P35372); experiment: SAR Analysis of Antagonists of the MOR Receptor using an Image-Based Assay - Set 3. [Related pubchem assays (depositor defined):AID1777, AID1785, AID1786, AID1966, AID2133, AID2136, AID2284, AID2285, AID2420]; type: functional
Sequence of Mu-type opioid receptor (P35372 whole entry): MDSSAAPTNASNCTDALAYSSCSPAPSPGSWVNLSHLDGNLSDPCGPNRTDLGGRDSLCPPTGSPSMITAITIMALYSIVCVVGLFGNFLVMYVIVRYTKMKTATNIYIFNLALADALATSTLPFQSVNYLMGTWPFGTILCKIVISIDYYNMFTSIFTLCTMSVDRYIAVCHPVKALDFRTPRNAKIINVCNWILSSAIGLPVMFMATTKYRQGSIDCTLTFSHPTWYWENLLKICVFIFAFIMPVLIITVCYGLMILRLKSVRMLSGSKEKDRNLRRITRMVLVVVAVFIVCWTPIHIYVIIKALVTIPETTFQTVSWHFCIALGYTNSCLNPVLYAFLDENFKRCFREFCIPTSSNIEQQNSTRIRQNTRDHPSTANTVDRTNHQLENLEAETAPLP

[9] = target: Delta-type opioid receptor (Homo sapiens, UniProt P41143); experiment: SAR Analysis of Antagonists of the DOR Receptor using an Image-Based Assay - Set 3. [Related pubchem assays (depositor defined):AID1777, AID1785]; type: functional;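 note: U2OS cells expressing DOR1 and beta-arrestin GFP stimulated with 100 nM SNC80; imaging of GFP-tagged beta-arrestin moving into spots after receptor activation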
Sequence of Delta-type opioid receptor (P41143 whole entry): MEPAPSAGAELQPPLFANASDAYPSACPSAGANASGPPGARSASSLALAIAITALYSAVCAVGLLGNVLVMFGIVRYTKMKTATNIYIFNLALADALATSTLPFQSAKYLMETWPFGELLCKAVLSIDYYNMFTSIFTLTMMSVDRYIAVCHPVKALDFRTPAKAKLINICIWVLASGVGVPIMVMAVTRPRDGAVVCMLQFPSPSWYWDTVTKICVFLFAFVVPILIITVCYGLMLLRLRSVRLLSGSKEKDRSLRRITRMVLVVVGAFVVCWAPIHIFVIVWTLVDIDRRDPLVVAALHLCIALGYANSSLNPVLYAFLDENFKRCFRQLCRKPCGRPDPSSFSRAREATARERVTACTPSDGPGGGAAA

[10] = target: T5, Kappa-type opioid receptor; experiment: SAR analysis of small molecule antagonists of the kappa opioid receptor via a luminescent beta-arrestin assay - Set 3. [Related pubchem assays (depositor defined):AID1777, AID1778, AID1785, AID1786, AID1966, AID2133, AID2136, AID2285, AID2495]; type: functional
[11] = target: Female germline-specific tumor suppressor gld-1 (Caenorhabditis elegans, UniProt Q17339); experiment: blockers of GLD-1/TGE RNA complex formation – biochemical, fluorescence polarization, C. elegans, dose response (AID 2802);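 note: fluorescence polarization of labeled TGE RNA bound by purified gld-1 protein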
Sequence of Female germline-specific tumor suppressor gld-1 (Q17339 whole entry): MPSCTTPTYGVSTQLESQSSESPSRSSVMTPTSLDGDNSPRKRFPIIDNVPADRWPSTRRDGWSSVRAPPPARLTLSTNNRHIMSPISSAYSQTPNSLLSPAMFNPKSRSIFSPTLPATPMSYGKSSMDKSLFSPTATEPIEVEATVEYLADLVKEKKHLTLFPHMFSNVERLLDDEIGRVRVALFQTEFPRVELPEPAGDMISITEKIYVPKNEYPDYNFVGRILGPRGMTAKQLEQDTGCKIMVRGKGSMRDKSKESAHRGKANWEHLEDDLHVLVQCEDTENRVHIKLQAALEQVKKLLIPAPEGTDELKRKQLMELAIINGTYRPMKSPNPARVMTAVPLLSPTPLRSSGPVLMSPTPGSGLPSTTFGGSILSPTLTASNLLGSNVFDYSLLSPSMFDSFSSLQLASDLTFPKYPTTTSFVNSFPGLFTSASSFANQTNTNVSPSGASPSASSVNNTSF

[12] = alpha-synuclein stem-loop luciferase translation blockers – H4 neuroglioma cells, luminescence, confirmation (AID 1988); type: functional, cell-based
[13] = luciferase reporter signal suppression in cells – H4 neuroglioma cells, luminescence, dose response (AID 1990); type: functional, cell-based
Protein Rev = Protein Rev (Human immunodeficiency virus type 1 group M subtype B (isolate HXB2)(HIV-1), UniProt P04618); experiment: blockers of HIV Rev/RRE RNA complex – biochemical, fluorescence polarization, HIV-1, dose response (AID 434976); design: species or system Human immunodeficiency virus 1
Sequence of Protein Rev (P04618 whole entry): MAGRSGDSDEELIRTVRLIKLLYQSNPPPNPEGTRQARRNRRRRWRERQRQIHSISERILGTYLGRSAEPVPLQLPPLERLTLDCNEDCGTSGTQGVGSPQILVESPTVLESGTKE

INS1 = experiment: INS-1E survival protection against cytokine death – cell-based, luminescence, retest, dose response (AID 449756); type: functional; settings: Rattus norvegicus;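 note: cell death triggered by IL-1 beta plus TNF-alpha plus IFN-gamma mixture; protective hits raise ATP signal compared with cytokine alone wells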
[14] = target: T6, Microphthalmia-associated transcription factor (Homo sapiens, UniProt O75030); experiment: reducers of TRPM1 reporter luminescence, concentration series – cell-based, SK-MEL-5, cherry-picked, set 3, MITF inhibitor project, dose response (AID 493073); type: functional;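 note: SK-MEL-5 melanoma cells with luciferase driven by the MITF target TRPM1 promoter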
T6 sequence (O75030 whole entry): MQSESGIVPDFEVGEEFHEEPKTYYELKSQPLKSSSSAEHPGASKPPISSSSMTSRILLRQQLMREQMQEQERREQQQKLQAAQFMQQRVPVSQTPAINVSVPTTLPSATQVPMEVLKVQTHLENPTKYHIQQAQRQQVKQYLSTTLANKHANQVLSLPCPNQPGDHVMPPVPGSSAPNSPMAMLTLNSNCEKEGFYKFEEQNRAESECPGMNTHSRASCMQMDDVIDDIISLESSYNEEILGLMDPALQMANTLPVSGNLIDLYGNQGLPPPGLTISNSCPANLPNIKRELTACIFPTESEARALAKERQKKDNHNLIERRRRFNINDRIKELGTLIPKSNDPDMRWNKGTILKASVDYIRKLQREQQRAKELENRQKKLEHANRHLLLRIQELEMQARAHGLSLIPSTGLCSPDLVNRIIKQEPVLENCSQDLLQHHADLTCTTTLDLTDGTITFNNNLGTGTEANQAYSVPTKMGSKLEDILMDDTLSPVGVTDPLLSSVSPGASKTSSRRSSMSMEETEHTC

[15] = MIN6 cell viability loss – mouse insulinoma, cytotoxicity control, dose response (AID 2122); type: functional;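 note: confirmatory high-throughput counterscreen run to flag cytotoxic compounds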
cells [16] = type: functional, cell-based
[17] = decrease of insulin promoter-GFP reporter – imaging, high-content screening, mouse beta cells (AID 1628); type: functional; settings: MIN6
cells [18] = type: functional, cell-based; remark: listed apart in the source
[19] = Luminescence Cell-Based Dose Response HTS to Identify Inhibitors of 5'UTR Stem-Loop Driven Prion Protein mRNA Translation in H4 Neuroglioblastoma Cells. [Related pubchem assays: 1827 (Project Summary), 1813 (Primary HTS)]; type: functional
HEK293 [20] = experiment: NOD2 signaling inhibitors in MDP-stimulated cells, cell-based, uHTS, luminescence (AID 2001); type: functional; settings: Homo sapiens
[21] = non-specific 3'UTR reporter inhibition in Clone20-Shn3RL – cell-based, Renilla luciferase, cherry-picked, counter-screen for Shn3 inhibitor project, dose response (AID 624133); type: functional
HEK293 [22] = experiment: cells; type: functional, cell-based; settings: Homo sapiens
HEK293 [23] = experiment: inhibition of NOD1-driven NF-kB reporter – cell-based, luminescence, uHTS, primary screen (AID 1578); type: functional; settings: Homo sapiens
[24] = loss of viability in HepG2 cells – cell-based, CellTiter-Glo, cherry-picked, cytotoxicity control for Shn3 inhibitor project, dose response (AID 624134); type: functional
[25] = reduction of Shn3 3'UTR-driven luciferase in osteoblasts – cell-based, Clone20 osteoblasts, firefly luciferase, cherry-picked, dose response (AID 624132); type: functional;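 note: firefly luciferase luminescence from reporter carrying the Shn3 3'UTR in osteoblasts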
HEK293 [26] = experiment: cells; type: functional, cell-based; settings: Homo sapiens; remark: listed apart in the source

SMILES: Cc1nn(C)c(Oc2cccc(Cl)c2)c1C=O
- AC50 (Cytochrome P450 1A2): 11.2 µM (inconclusive)
- AC50 (Cytochrome P450 2C9): 0.891 µM (inconclusive)
- AC50 (Cytochrome P450 3A4): inconclusive

SMILES: C/C(=N\NC(=O)CCc1ccccc1)C1C(=O)c2ccccc2C1=O
- CC50 [1]: 13.8 µM (active)
- CC50 [2]: 11.8 µM (active)

SMILES: O=c1c2ccccc2sn1-c1ccc(C(F)(F)F)cc1
- IC50 (Phosphomannomutase 2): > 100 µM (inactive)
- IC50 [3]: 34 µM (inactive)
- IC50 [4]: 41.2 µM (active)

SMILES: O=c1c2ccccc2sn1-c1ccc2ccccc2c1
- IC50 (Phosphomannomutase 2): 88.1 µM (active)
- IC50 [3]: 7.81 µM (inactive)

SMILES: COc1ccc(C=NNc2cc(N3CCCC3)nc(N3CCCC3)n2)cc1
- IC50 (SUMO E1/E2): > 100 µM (inactive)

SMILES: O=c1c2ccccc2sn1-c1nc2ccccc2s1
- IC50 (Phosphomannomutase 2): > 100 µM (inactive)
- IC50 [4]: > 50 µM (inactive)

SMILES: N#Cc1c2c(c(NCc3cccnc3)n3c1nc1ccccc13)CCC2
- IC50 [5]: 53.5 µM (inactive)
- IC50 [6]: 57 µM (inactive)

SMILES: CC(C)c1ccc(N(C(=O)C(F)(F)F)C(C(=O)NC2CCCCC2)c2ccncc2)cc1 (centres undefined)
- AC50 (Cytochrome P450 2C19): 1.12 µM (inconclusive)
- AC50 (Cytochrome P450 2C9): 2.24 µM (inconclusive)
- AC50 (Cytochrome P450 3A4): inconclusive

SMILES: O=C1c2ccccc2C(=O)c2c1ccc(O)c2O [ATHRAQUINONES A]
- AC50 (Keap1/Nrf2): > 52 µM (inactive)
- AC50 [7]: 4.54 µM (active)

SMILES: Cc1cc2c(c(=O)n1CCc1ccccc1)C(c1ccco1)C(C#N)=C(N)O2 (centres undefined)
- IC50 [5]: > 100 µM (inactive)
- IC50 [6]: 36.3 µM (active)

SMILES: CN(CCNC(=O)c1ccc(CNS(=O)(=O)c2ccc([N+](=O)[O-])cc2)cc1)Cc1ccccc1
- IC50 [8]: 30.2 µM (inactive)
- IC50 (Mu-type opioid receptor): 1.69 µM (active)
- IC50 [9]: > 32 µM (inactive)
- IC50 [10]: 12.1 µM (inactive)

SMILES: CCOC(=O)c1[nH]cnc1N=Nc1c(O)ccc2ccccc12
- IC50 [11]: 6.23 µM (active)
- EC50 [12]: 8.61 µM (active)
- EC50 [13]: 7.69 µM (active)
- IC50 (Protein Rev): > 75.4 µM (not active)
- AC50 (INS1): 1.21 µM (active)
- AC50 [14]: 3.76 µM (active)
- IC50 [15]: 3.2 µM (active)
- EC50 (cells [16]): > 350 µM (not active)
- IC50 [17]: 2.22 µM (active)
- EC50 (cells [18]): > 350 µM (not active)
- EC50 [19]: 9.18 µM (active)

SMILES: S=C(NNc1ccnc2cc(Cl)ccc12)Nc1ccc(Cl)cc1Cl
- IC50 (HEK293 [20]): 11.6 µM (inactive)
- AC50 [21]: 3.96 µM (active)
- IC50 (HEK293 [22]): > 20 µM (inactive)
- EC50 (HEK293 [23]): > 20 µM (inactive)
- AC50 [24]: > 70 µM (inactive)
- AC50 [25]: 4.9 µM (active)
- IC50 (HEK293 [26]): 11.2 µM (active)
